Reference: PubChem BioAssay AID2060492 (Molecular Pharmacology Branch, DTP, NCI, 2025)

System: 695427-040-R-J1-PDC complex spheroids, viability percent T/C
Test: Anticancer human tumor 695427-040-R-J1-PDC patient-derived colon adenocarcinoma cell line growth inhibition [GQUAD]
Conditions: for IC50: curve of first compound; for viability, T/C: stronger effect = lower value
From the text: DNA G-quadruplex Stabilizer Agents in Combinations in Complex Spheroids
A high-throughput screen of multi-cell type tumor spheroids was designed to identify active combinations of DNA G-quadruplex stabilizer agents and targeted small molecules. Complex spheroids include a stromal component modeled by human endothelial cells (HUVEC) and fibroblasts modeled by human mesenchymal stem cells (MSCs). The concentration ranges selected for each drug and investigational agent were based upon clinically achievable concentrations if the clinical Cmax of the agent was known.
Compounds. The drugs and investigational agents: pidnarulex (CX-5461; NSC782164), APTO-253 (NSC789042), BRACO-19 (NSC847499), peposertib (NSC802822), ceralasertib (NSC780249), elimusertib (NSC800525), camonsertib (NSC841442), AZD-1390 (NSC803789), olaparib (NSC753686), talazoparib (NSC767125), ART-558 (NSC835418), sotorasib (NSC818433), MRTX-1133 (NSC836407), SN-38 (NSC673596), topotecan (NSC609699), etoposide (NSC141540), doxorubicin (NSC123127), gemcitabine (NSC613327), 5-fluorouracil (NSC19893), paclitaxel (NSC125973), vemurafenib (NSC761431), panobinostat (NSC761190), R-306465 (JNJ-16241199; NSC773264), adavosertib (NSC754352), TP-3654 (NSC805149), carboplatin (NSC241240), KSQ-4279 (NSC840948), and staurosporine (NSC755774) were obtained from the National Cancer Institute (NCI) Developmental Therapeutics Program Chemical Repository (34). The FDA-approved anticancer drug set is available from the NCI Developmental Therapeutics Program. […] The stock solutions were prepared in dimethyl sulfoxide (DMSO, Sigma-Aldrich, St. Louis, MO, cat. D2650) at 800-fold the tested concentration and stored at -70 degrees C prior to their use. All drugs and investigational agents were tested over a range starting from a high concentration at or near the clinical Cmax and decreasing in half-log increments. If the clinical Cmax for an agent had not been determined, the highest concentration tested was 10 microM.
2.3 Cell Culture. All cells were maintained in an incubator at 37 degrees C and 5% CO2 with 95% humidity. The PDC lines were cultured according to standard operating procedures established by the NCI PDMR. All PDCs were thawed and cultured in Matrigel-coated flasks prepared with a working solution of 1X Ham's F-12 nutrient mix, without supplementation (Invitrogen, cat. 11765054), 100 U/mL penicillin-streptomycin (Invitrogen, cat. 15140122), and 2.5% Matrigel (Corning Inc., cat. 354248) for the first three passages. The 857933-349-R-J2-PDC line was cultured in 6C/Colon 1B media, which includes advanced DMEM/F-12 (Thermo Fisher Scientific, cat. 12634028), 10 mM HEPES (Thermo Fisher Scientific, cat. 15630080), 1X GlutaMAX supplement (Thermo Fisher Scientific, cat. 35050061), 0.1 mg/mL primocin (InvivoGen, cat. ant-pm-2), 10% defined fetal bovine serum, heat inactivated (HyClone Laboratories Inc., cat. SH30070.03HI), 50% L-WRN conditioned media (ATCC, cat. CRL-3276), 1.25 mM N-Acetyl-L-cysteine (Sigma-Aldrich, cat. A9165), 10 mM nicotinamide (Sigma-Aldrich, cat. N0636), 1X B-27 supplement (Thermo Fisher Scientific, cat. 17504044), 1X N-2 supplement (Thermo Fisher Scientific, cat. 17502048), 10 microM Y-27632 dihydrochloride (Tocris Bioscience, cat. 1254), and 50 ng/mL human EGF recombinant protein (Thermo Fisher Scientific, cat. PHG0311). The 485176-168-R4-J1-PDC line was cultured in Panc media, which includes all 6C/Colon 1B media components plus 100 ng/mL human FGF-10 (Thermo Fisher Scientific, cat. 100-26), 500 nM SB-431542 (Selleckchem, cat. S1067), and gastrin (Tocris, cat. 3006).
[…]
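Note: spheroids exposed to compounds for seven days before readout.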

`CC(C)(O)C1CCC(Nc2ccc3ncc(-c4cccc(C(F)(F)F)c4)n3n2)CC1` (configuration not stated) + Cc1cnc(CNC(=O)c2c(=O)c3ccc(N4CCCN(C)CC4)nc3n3c2sc2ccccc23)cn1 was tested, and the IC50 (second compound 0.0316 µM) was 1110 nM, the IC50 (second compound 0.1 µM) was 848 nM and the IC50 (second compound 0.316 µM) was 1070 nM. The IC50 (second compound 1 µM) was 324 nM, the IC50 (second compound 3.16 µM) was < 31.6 nM and the IC50 (second compound 10 µM) was < 31.6 nM. For the same molecule, the viability, T/C (second compound 0.0316 µM, first compound 0.0316 µM) was 82.1%, the viability, T/C (second compound 0.0316 µM, first compound 0.1 µM) was 77.6% and the viability, T/C (second compound 0.0316 µM, first compound 0.316 µM) was 73.5%. The viability, T/C (second compound 0.0316 µM, first compound 1 µM) was 54.2%, the viability, T/C (second compound 0.0316 µM, first compound 3.16 µM) was 8.38% and the viability, T/C (second compound 0.0316 µM, first compound 10 µM) was 11.3%. It also gave a viability, T/C (second compound 0.1 µM, first compound 0.0316 µM) of 86.5%, a viability, T/C (second compound 0.1 µM, first compound 0.1 µM) of 61.3% and a viability, T/C (second compound 0.1 µM, first compound 0.316 µM) of 78.2%. For the same molecule, the viability, T/C (second compound 0.1 µM, first compound 1 µM) was 45.8%, the viability, T/C (second compound 0.1 µM, first compound 3.16 µM) was 12.6% and the viability, T/C (second compound 0.1 µM, first compound 10 µM) was 11.2%. It also gave a viability, T/C (second compound 0.316 µM, first compound 0.0316 µM) of 75.2%, a viability, T/C (second compound 0.316 µM, first compound 0.1 µM) of 52.5% and a viability, T/C (second compound 0.316 µM, first compound 0.316 µM) of 62.6%. The viability, T/C (second compound 0.316 µM, first compound 1 µM) was 52.5%, the viability, T/C (second compound 0.316 µM, first compound 3.16 µM) was 8.9% and the viability, T/C (second compound 0.316 µM, first compound 10 µM) was 11.4%. It also gave a viability, T/C (second compound 1 µM, first compound 0.0316 µM) of 67.3%, a viability, T/C (second compound 1 µM, first compound 0.1 µM) of 59.8% and a viability, T/C (second compound 1 µM, first compound 0.316 µM) of 46.9%. The viability, T/C (second compound 1 µM, first compound 1 µM) was 34.7%, the viability, T/C (second compound 1 µM, first compound 3.16 µM) was 1.37% and the viability, T/C (second compound 1 µM, first compound 10 µM) was 4.04%. For the same molecule, the viability, T/C (second compound 3.16 µM, first compound 0.0316 µM) was 44.2%, the viability, T/C (second compound 3.16 µM, first compound 0.1 µM) was 40.6% and the viability, T/C (second compound 3.16 µM, first compound 0.316 µM) was 50.6%. For the same molecule, the viability, T/C (second compound 3.16 µM, first compound 1 µM) was 17.7%, the viability, T/C (second compound 3.16 µM, first compound 3.16 µM) was 0.11% and the viability, T/C (second compound 3.16 µM, first compound 10 µM) was 0.15%. The viability, T/C (second compound 10 µM, first compound 0.0316 µM) was 24.7%, the viability, T/C (second compound 10 µM, first compound 0.1 µM) was 21.9% and the viability, T/C (second compound 10 µM, first compound 0.316 µM) was 12.1%. For the same molecule, the viability, T/C (second compound 10 µM, first compound 1 µM) was 0.26%, the viability, T/C (second compound 10 µM, first compound 3.16 µM) was 0.2% and the viability, T/C (second compound 10 µM, first compound 10 µM) was 0.19%.
